Key:
[1] = Inhibition of CTP (unknown origin); parameters: species or system Homo sapiens
[2] = Binding affinity to Wnt/beta catenin (unknown origin) assessed as inhibition constant at 20 uM; parameters: species or system Homo sapiens

IC50 [1]: 8.4 µM
Ki [2]: 10.5 µM
SMILES: COC(=O)c1c(-c2ccc(OC)cc2)n(C)c2c(=O)oc3ccccc3c12

— ChEMBL document CHEMBL5226302, “Small-Molecule Inhibitors Targeting the Canonical WNT Signaling Pathway for the Treatment of Cancer” (J Med Chem, 2021)
